Article PMC11249646, “Small-Molecule Disruptors of the Interaction between Calcium- and Integrin-Binding Protein 1 and Integrin αIIbβ3 as Novel Antiplatelet Agents” (ACS Pharmacology & Translational Science, 2024)
Where two headings read alike, the source gives them in different places.

Legend:
[1] = target: T1, CIB1 and αIIb interaction (CIB1-GST : F-αIIb peptide) (Homo sapiens, UniProt Q99828); test: FP assay, 1536-well qHTS format (primary and confirmatory screen); assay type: binding; conditions: for Curve Class (confirmatory screen) / CONFIRMATORY SCREEN Curve Class: qHTS curve class
T1 construct: made in house; host or cells: BL-21 plus RIL cells (E. coli)
T1 sequence (Q99828 1-191): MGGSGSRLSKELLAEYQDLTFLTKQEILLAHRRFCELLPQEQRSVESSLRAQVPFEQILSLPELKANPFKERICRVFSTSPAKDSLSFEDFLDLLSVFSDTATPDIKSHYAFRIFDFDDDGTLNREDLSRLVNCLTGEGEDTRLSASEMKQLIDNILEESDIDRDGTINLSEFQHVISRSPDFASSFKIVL

[2] = target: T2, GST-CIB1 : F-scrambled peptide (Homo sapiens, UniProt Q99828); test: FP scrambled-peptide counter screen, 1536-well format; assay type: binding; conditions: for Curve Class (counterscreen) / COUNTERSCREEN Curve Class: qHTS curve class; for IC50: read-out: IC50 [μM] (counterscreen)
T2 construct: made in house; host or cells: BL-21 plus RIL cells (E. coli)
T2 sequence (Q99828 1-191): T1 sequence (Q99828 1-191)

[3] = Table S3, confirmatory screen, YES/NO call
[4] = Table S3, confirmatory screen, a negative sign marks inhibitory curves
[5] = Table S3, confirmatory screen, negative = inhibition
[6] = Table S3, confirmatory screen, read-out: IC50 [μM] (confirmatory screen)
[7] = qHTS primary screen hits, Table S2, negative = inhibition
[8] = qHTS primary screen hits, Table S2, negative sign = inhibitory curve, several classes where COUNT > 1
[9] = qHTS primary screen hits, Table S2, read-out: IC50
[10] = Table S3, counterscreen, a negative sign marks inhibitory curves
[11] = Table S3, counterscreen, negative = inhibition
[12] = qHTS FP screen hits, Table S2, negative = inhibition
[13] = qHTS FP screen hits, Table S2, one class per curve where COUNT > 1, negative sign = inhibitory curve
[14] = qHTS FP screen hits, Table S2, read-out: IC50
[15] = confirmatory screen, negative sign = inhibitory curve
[16] = confirmatory screen, read-out: IC50 [μM] (confirmatory screen)
[17] = counterscreen, negative sign = inhibitory curve
[18] = scrambled-peptide counterscreen

Compound	Confirm? (confirmatory screen) [1, 3]	Curve Class (confirmatory screen) [1, 4]	Efficacy (%) (confirmatory screen) [1, 5]	IC50 [1, 6] [µM]	Efficacy (%) [1, 7] [%]	Curve Class [1, 8]	IC50 [1, 9] [µM]	Curve Class (counterscreen) [2, 10]	Efficacy (%) (counterscreen) [2, 11]	IC50 ([2]; Table S3, counterscreen) [µM]	Efficacy (%) [1, 12] [%]	Curve Class [1, 13]	IC50 [1, 14] [µM]	Efficacy (%) (confirmatory screen) ([1]; confirmatory screen)	Confirm? (confirmatory screen) ([1]; confirmatory screen, YES/NO)	Curve Class (confirmatory screen) [1, 15]	Efficacy (%) (counterscreen) ([2]; counterscreen)	Curve Class (counterscreen) [2, 17]	IC50 ([2]; counterscreen) [µM]	further results
COC(=O)c1scc2c(O)cc(C(F)(F)F)nc12 [NCGC00168006-01]	YES	-3	-58	70.8	-56	-2.2	50.1	-3	-67	79.4	–	–	–	–	–	–	–	–	–	–
COc1c(O)cccc1[C@H](O)C1CCN(CCc2ccc(F)cc2)CC1 [NCGC00168042-01]	YES	-2.4	-89	50.1	–	–	–	-2.1	-83	50.1	–	–	–	–	–	–	–	–	–	–
CN1CCc2ccc3c4c2[C@]1(C)Cc1cccc(c1-4)OCO3 [NCGC00168048-01]	YES	-2.1	-118	–	–	–	–	-2.1	-136	31.6	-100	-2.1	39.8	–	–	–	–	–	–	–
O=C(NC1=CC(=O)[C@H]2O[C@H]2C1=O)c1ccccc1O [NCGC00168093-01]	YES	-2.4	-49	56.2	-29	-2.4	31.6	-2.4	-54	50.1	–	–	–	–	–	–	–	–	–	–
CNc1ccc(C(=O)Oc2cc(ON=[N+]([O-])N(C)C)c([N+](=O)[O-])cc2[N+](=O)[O-])cc1 [NCGC00168169-02]	–	–	–	–	–	–	–	–	–	–	-30	-1.2	22.4	-42	YES	-1.2	-40	-2.2	39.8	IC50 [1, 16]: 14.1 µM
CCCCC(CC)CNC(=N)NC(=N)NCCCCCCNC(=N)NC(=N)NCC(CC)CCCC.Cl.Cl.Cl (stereo not drawn) [NCGC00178352-06]	–	–	–	–	–	–	–	–	–	–	-55	-1.2	22.4	-86	YES	-2.1	93	3	100	IC50 [1, 16]: 28.2 µM; Confirm? (counterscreen) ([2]; counterscreen, YES/NO): YES
CC1=C(O)C(=O)C=C2C1=CC=C1[C@@]2(C)CC[C@@]2(C)[C@@H]3C[C@](C)(C(=O)O)CC[C@]3(C)CC[C@]12C [NCGC00178913-04]	–	–	–	–	–	–	–	–	–	–	-84	-3	34.1	-135	YES	-1.1	-107	-2.1	44.7	IC50 [1, 16]: 22.4 µM
C[C@@H]1CC[C@]2(C)C3(C)CC[C@@]2(OC3=O)[C@@]12C[C@H](c1ccoc1)OC2=O [NCGC00180662-03]	YES	-1.2	-44	7.1	–	–	–	-1.2	-44	8.9	-33	-1.2	10	–	–	–	–	–	–	–
O=C(NNC(=O)c1nc2ccccc2[nH]1)OCc1ccccc1 [NCGC00181216-01]	–	4	-25	–	-24	-2.4	22.4	4	-28	–	–	–	–	–	–	–	–	–	–	–
CC(C)(C)OC(=O)CC(=O)NNC(=O)c1nc2ccccc2[nH]1 [NCGC00181234-01]	–	–	–	–	-37	–	39.8	–	–	–	–	–	–	–	–	–	–	–	–	CONFIRMATORY SCREEN Efficacy (%) ([1]; confirmatory screen): -10%; CONFIRMATORY SCREEN Curve Class ([1]; confirmatory screen): 4; Curve Class ([1]; qHTS primary screen hits, Table S2, negative sign = inhibitory curve): -2.4; COUNTERSCREEN Efficacy (%) ([2]; counterscreen): -21%; COUNTERSCREEN Curve Class ([2]; counterscreen): 4
Cc1cc2nc3ccc(N(C)C)cc3[s+]c2cc1N.Cl.[Cl-] [NCGC00181775-02]	–	–	–	–	-38	-2.4	39.8	–	–	–	–	–	–	-72	YES	-2.2	-83	-2.2	44.7	IC50 [1, 16]: 22.4 µM
Cc1ccccc1NC(=O)CN1C(=O)N/C(=C\c2cn(-c3cccc(C(=O)O)c3)cn2)C1=O [NCGC00182400-01]	–	4	-21	–	–	–	–	4	-14	–	-24	–	11.2	–	–	–	–	–	–	–
O=S(=O)(c1ccc2nc(Cl)c(Cl)nc2c1)N1CCN(S(=O)(=O)c2c(F)cccc2F)CC1 [NCGC00182436-01]	–	–	–	–	-32	-1.4	2.2	–	–	–	–	–	–	–	–	–	–	–	–	CONFIRMATORY SCREEN Confirm? ([1]; confirmatory screen, YES/NO call): YES; CONFIRMATORY SCREEN Curve Class [1, 15]: -1.4; CONFIRMATORY SCREEN Efficacy (%) ([1]; confirmatory screen, negative = inhibition): -43%; IC50 ([1]; confirmatory screen, read-out: CONFIRMATORY SCREEN IC50): 5.6 µM; COUNTERSCREEN Efficacy (%) [2, 18]: -18%; COUNTERSCREEN Confirm? ([2]; scrambled-peptide counterscreen, YES/NO call): YES; COUNTERSCREEN Curve Class [2, 18]: 4
O=C(O)c1ccc(-n2cccc2/C=C2\SC(=O)N(Cc3cccc(Cl)c3)C2=O)cc1 [NCGC00182735-01]	–	–	–	–	–	–	–	–	–	–	-66	-2.2	–	-109	YES	-2.1	-61	-2.2	56.2	–
C/C(=C\c1ccc2c(c1)OCO2)C1Nc2cccc3cccc(c23)N1 [NCGC00182904-03]	–	4	-33	–	-34	-2.4	35.5	-1.2	-77	12.6	–	–	–	–	–	–	–	–	–	Confirm? (counterscreen) ([2]; Table S3, counterscreen, YES/NO call): YES
COc1ccccc1Nc1cc2ccccc2c(O)n1 [NCGC00183215-01]	YES	-2.1	-92	39.8	-67	-2.2	50.1	-2.1	-136	35.5	–	–	–	–	–	–	–	–	–	–
